The text below walks through data of US20240270695A1, “COMPOUNDS, COMPOSITIONS AND METHODS OF TREATING DISORDERS” (Chengdu Anticancer Bioscience LTD, priority 2021, published 2024).

For assay [1], the system named is RPE-Neo or RPE-MYC or RPE-MYC expressing an EGFP-Histone 2B fusion protein. Description: MTT assays of cellular proliferation. Type of assay: cell-based. The settings on record: Homo sapiens, min. effective conc., read-out: Proliferative arrest (<50%).
Assay [2] shares this test system. Description: Phenotypic screening assay (arrest in mitosis, change in DNA content, cell death; GE IN-Cell Analyzer 2000). Type of assay: cell-based. The settings on record: Homo sapiens, compounds 20 nM to 20 μM, 24, 48 or 72 hours.
[3] abbreviates: read-out: Min. Effective conc. for Polyploidy (≥10%).
Where [4] appears, read: min. effective conc., read-out: Cell Death (>30%).
Where [5] appears, read: min. effective conc., read-out: Mitotic Arrest (≥10%).

As to `CNC(=O)C1=C(O)c2ccc(OCc3ccsc3)cc2N(Cc2ccc(C)c(F)c2)C(=O)C1` [Example 134, 1-(3-fluoro-4-methylbenzyl)-5-hydroxy-N-methyl-2-oxo-8-(thiophen-3-ylmethoxy)-2,3-dihydro-1H-benzo[b]azepine-4-carboxamide], the minimal effective concentration in assay [1], in assay [2] (setting [3]), in assay [2] (setting [4]) and in assay [2] (setting [5]) was 1 to 10 µM in each case.
Consider `CNC(=O)C1=C(O)c2cc(F)ccc2N(Cc2ccc(C)c(F)c2)C(=O)C1` [Example 135, 7-fluoro-1-(3-fluoro-4-methylbenzyl)-5-hydroxy-N-methyl-2-oxo-2,3-dihydro-1H-benzo[b]azepine-4-carboxamide], for which the minimal effective concentration in assay [1], in assay [2] (setting [3]), in assay [2] (setting [4]) and in assay [2] (setting [5]) was 1 to 10 µM each time.
For `CNC(=O)C1=C(O)c2cc(C)ccc2N(Cc2ccc(C)c(F)c2)C(=O)C1` [Example 136, 1-(3-fluoro-4-methylbenzyl)-5-hydroxy-N,7-dimethyl-2-oxo-2,3-dihydro-1H-benzo[b]azepine-4-carboxamide], the minimal effective concentration in assay [1], in assay [2] (setting [3]), in assay [2] (setting [4]) and in assay [2] (setting [5]) was 1 to 10 µM each time.
As to `CNC(=O)C1=C(O)c2cc(OC)ccc2N(Cc2ccc(C)c(F)c2)C(=O)C1` [Example 137, 1-(3-fluoro-4-methylbenzyl)-5-hydroxy-7-methoxy-N-methyl-2-oxo-2,3-dihydro-1H-benzo[b]azepine-4-carboxamide], the minimal effective concentration in assay [1], in assay [2] (setting [3]), in assay [2] (setting [4]) and in assay [2] (setting [5]) was 1 to 10 µM throughout.
Take `CNC(=O)C1=C(O)c2ccc(-c3cnn(C)c3)cc2N(Cc2ccc(C)c(F)c2)C(=O)C1` [Example 138, 1-(3-fluoro-4-methylbenzyl)-5-hydroxy-N-methyl-8-(1-methyl-1H-pyrazol-4-yl)-2-oxo-2,3-dihydro-1H-benzo[b]azepine-4-carboxamide]: the minimal effective concentration in assay [1], in assay [2] (setting [3]), in assay [2] (setting [4]) and in assay [2] (setting [5]) was 1 to 10 µM in each case.
For the compound `CNC(=O)C1=C(O)c2ccc(C#N)cc2N(Cc2ccc(C)c(F)c2)C(=O)C1` [Example 139], the minimal effective concentration in assay [1], in assay [2] (setting [3]), in assay [2] (setting [4]) and in assay [2] (setting [5]) was 1 to 10 µM in each case.
On to `COc1ccc2c(c1)N(Cc1ccc(C)c(F)c1)C(=O)CC(C(=O)C1CC1)=C2O` [Example 141, 4-(cyclopropanecarbonyl)-1-(3-fluoro-4-methylbenzyl)-5-hydroxy-8-methoxy-1,3-dihydro-2H-benzo[b]azepin-2-one], for which the minimal effective concentration in assay [1], in assay [2] (setting [3]), in assay [2] (setting [4]) and in assay [2] (setting [5]) was 0.001 to 1 µM each time.
